According to patent publication US10160785B2, “Antimicrobial peptides and their use for the treatment of topical infections” (priority 2015, dated 2018):

Experiments:
[1] = in vitro; details: human
Procedure: The peptides in the concentrations 2-200 μmol.l^−1 were incubated with the suspension of human red blood cells (5% v/v) for 1 h at 37° C. in a physiological solution at a final volume of 0.2 ml. The samples were then centrifuged for 5 min at 250 g, and the absorbance of the supernatant was determined at 540 nm. Supernatants of red blood cells suspended in physiological solution and in 0.2% (v/v) TRITON X100 in physiological solution served as controls for zero hemolysis (blank) and 100% hemolysis, respectively. Hemolytic activity is expressed as the peptide concentration required for lysis of 50% of human erythrocytes in the assay (LC50).

[2] = test system: S. aureus (Liberec) biofilm; assay: Bacterial biofilm, remaining metabolic activity (MTT); format: cell-based, Staphylococcus aureus; details: remaining metabolic activity of biofilm, 20 h
Procedure: (§1) Inoculum of S. aureus (Liberec) or P. aeruginosa (Liberec) cultivated overnight in BHI medium was diluted with fresh BHI medium containing 1% glucose to a final concentration to be ca. 10^8 CFU/ml. Then this was pipetted (100 μl) to 96-multiwell polystyrene plate which was incubated at 37° C. under rotary shaking (300 RPM) for 24 h. Medium without bacteria in the wells was used as a negative control. Supernatant from each well was drained and the biofilm formed on the bottom and on the walls of the wells was cautiously washed three times by sterile physiological solution (300 μl). The peptides tested in the concentrations of 1-128 μmol.l^−1 were prepared by twofold serial dilution of their stock solution (1 mmol.l^−1) in fresh BHI medium and then pipetted (100 μl) to the wells with formed biofilms. The biofilms covered by BHI medium without peptide were used as a positive control. The plates were then incubated for 20 h as described above. After that the liquid was drained out and wells were washed twice with sterile physiological solution.
(§2) The metabolic activity of surviving bacterial cells in the biofilm was determined by staining with MTT (3-(4,5-dimethylthiazol-2-yl)-2,5-diphenyl-2H-tetrazolium bromide) as follows: The mixture of BHI medium (100 μl) and 10 μl of the stock solution of MTT (5 mg/ml in physiological solution) was added to each well and the plate was incubated 40 min at 37° C. The liquid was drained out and the insoluble formazan crystals formed by reduction inside the biofilm were dissolved with dimethyl sulphoxide (100 μl). The intensity of staining in each well was measured as absorbance at 540 nm on a Tecan Infinite M200 Pro reader (Tecan GmbH, Austria). Remaining activity of surviving cells inside the biofilm was expressed for each well in percentage according to the following equation:
(§3) [formula] where A is the absorbance of the tested compound, ABL is the absorbance of the negative control, and AC is the absorbance of control biofilm.

[3] = test system: Candida albicans (Olomouc) biofilm; assay: C. albicans biofilm, remaining metabolic activity (XTT); format: cell-based
Procedure: Candida albicans (Olomouc) was sub-cultured overnight in YPD medium (10 g yeast extract (DIFCO, USA), 20 g peptone (OXOID), 20 g glucose (Penta) dissolved in 1 L of distilled water) at constant shaking (100 RPM) at 37° C. Next day, the overnight culture was diluted 1:100 into fresh YPD medium and incubated at constant shaking (200 RPM) at 37° C. until the mid-exponential growth phase was reached. Then the cells were harvested and washed twice by centrifugation in physiological solution (5000 RPM; 5 min). Cells were suspended in sterile salt solution and their optical density was determined at 600 nm.
A final yeast suspension was prepared at a cell density of 1×10^6 CFU (corresponding to optical density of 0.17 at 600 nm) in RPMI 1640 medium with L-glutamine (BioSera), NaHCO3 (2 g/l; Penta) and 0.165 mol.l^−1 MOPS (Duchefa)—further as RPMI broth medium 1.
Biofilms were formed on commercially available sterile, polystyrene, flat-bottomed, 96-well microtiter plates (TPP, SW). Cell suspension (100 μl) was pipetted into selected wells of a microtiter plate and incubated without shaking for 2 hours at 37° C. Afterwards, the wells were washed twice with sterile PBS buffer (1.44 g Na2HPO4, 0.24 g KH2PO4, 0.2 g KCl and 8 g NaCl in 1 l distilled water, pH=7; Penta). Fresh RPMI broth medium 1 (100 μl) was added to each well and the plate was sealed with parafilm and incubated without shaking for 48 hours at 37° C.
Planktonic and non-adherent cells were removed by threefold washing of the biofilm with sterile PBS buffer (200 μl). A twofold serial dilution was used to reach required peptide concentration (in RPMI broth medium 1) in each well. Peptide concentrations range was between 0.39-200 μmol.l^−1. Plates were then sealed with parafilm and incubated for 20 hours at 37° C.
The metabolic activity of surviving Candida cells in the treated biofilm was determined by staining with XTT (2,3-Bis(2-methoxy-4-nitro-5-sulphophenyl)-2H-tetrazolium-5-carboxanilide). Stock solution of PMS (phenazine methosulfate; 7.5 g/l; SIGMA, Czech Republic) stored at −20° C. was diluted in PBS buffer 1:100. Diluted PMS was further mixed (2:25) with stock solution of XTT (0.5 g/l; Alchimica, Slovakia) dissolved in PBS/RPMI broth medium (1:1). Mixture (100 μl) of PMS and XTT was added into treated biofilm in the wells and incubated for 90 min at 37° C. Then the intensity of staining in each well was measured as absorbance at 540 nm on a Tecan Infinite M200 Pro reader (Tecan GmbH, Austria). Remaining metabolic activity of the cells in the biofilm was expressed for each well in percentage and calculated as follows:
[formula] where A is the absorbance of tested compound, ABL is the absorbance of negative control and AC is the absorbance of control untreated biofilm. The non-inoculated wells served as negative control. Inoculated wells not treated with compound served as positive control. Amphotericin B was used as control drug to ensure quality of Candida albicans. The values of remaining metabolic activity of treated biofilms are shown at Table 5.

[4] = test system: P. aeruginosa (Liberec) biofilm; assay: Bacterial biofilm, remaining metabolic activity (MTT); format: cell-based, Pseudomonas aeruginosa; details: remaining metabolic activity of biofilm, 20 h
Procedure: as §1, §2, §3

[5] = peptide concentration 8 μmol · l^−1
[6] = peptide concentration 16 μmol · l^−1
[7] = peptide concentration 32 μmol · l^−1
[8] = peptide concentration 64 μmol · l^−1
[9] = peptide concentration 128 μmol · l^−1
[10] = peptide concentration 6.25 μmol · l^−1, 20 hours
[11] = peptide concentration 12.5 μmol · l^−1, 20 hours
[12] = peptide concentration 25 μmol · l^−1, 20 hours
[13] = peptide concentration 50 μmol · l^−1, 20 hours
[14] = peptide concentration 100 μmol · l^−1, 20 hours
[15] = peptide concentration 200 μmol · l^−1, 20 hours

Substance | CC50 at 1 h [1] | Metabolic activity (%) S. aureus (Liberec) [2, 5] | Metabolic activity (%) S. aureus (Liberec) [2, 6] | Metabolic activity (%) S. aureus (Liberec) [2, 7] | Metabolic activity (%) S. aureus (Liberec) [2, 8] | Metabolic activity (%) S. aureus (Liberec) [2, 9] | Metabolic activity of C. albicans (%) [3, 10] | Metabolic activity of C. albicans (%) [3, 11] | Metabolic activity of C. albicans (%) [3, 12] | Metabolic activity of C. albicans (%) [3, 13] | Metabolic activity of C. albicans (%) [3, 14] | Metabolic activity of C. albicans (%) [3, 15] | Metabolic activity (%) P. aeruginosa (Liberec) [4, 5] | Metabolic activity (%) P. aeruginosa (Liberec) [4, 6] | Metabolic activity (%) P. aeruginosa (Liberec) [4, 7] | Metabolic activity (%) P. aeruginosa (Liberec) [4, 8] | Metabolic activity (%) P. aeruginosa (Liberec) [4, 9]
H-GIMSSLMKKLAAIIKK-NH2 [IX] | > 400 µM | 79.1% | 53.6% | 54.0% | 30.5% | 23.6% | 93.2% | 54.3% | 2.3% | 1.5% | 1.3% | 0.8% | 73.6% | 76.8% | 85.3% | 83.8% | 34.2%
H-GIMSSLMKKLKKIIAK-NH2 [I] | > 400 µM | 111.6% | 103.3% | 111.2% | 101.9% | 11.4% | 100.4% | 108.0% | 130.7% | 57.5% | 28.2% | 8.1% | 86.4% | 87.7% | 89.6% | 62.9% | 43.4%
